Data on 46 compounds can be found in patent publication US9637472B2, “Substituted 6,5-fused bicyclic heteroaryl compounds” (Epizyme, Inc., priority 2011, dated 2017).

The structures appear in SMILES notation.

The experiment deals with EZH2 (Homo sapiens (Human), UniProt Q15910). Description: PRC2 enzyme assay on peptide substrates. The conditions noted are these: PRC2 enzyme assays on peptide substrates; 4 nM enzyme, 30 min preincubation at 25° C.; read-out: EZH2 IC50. In kind it is biochemical.
EZH2, sequence (Q15910 other isoform, or with tags, fused parts or gaps): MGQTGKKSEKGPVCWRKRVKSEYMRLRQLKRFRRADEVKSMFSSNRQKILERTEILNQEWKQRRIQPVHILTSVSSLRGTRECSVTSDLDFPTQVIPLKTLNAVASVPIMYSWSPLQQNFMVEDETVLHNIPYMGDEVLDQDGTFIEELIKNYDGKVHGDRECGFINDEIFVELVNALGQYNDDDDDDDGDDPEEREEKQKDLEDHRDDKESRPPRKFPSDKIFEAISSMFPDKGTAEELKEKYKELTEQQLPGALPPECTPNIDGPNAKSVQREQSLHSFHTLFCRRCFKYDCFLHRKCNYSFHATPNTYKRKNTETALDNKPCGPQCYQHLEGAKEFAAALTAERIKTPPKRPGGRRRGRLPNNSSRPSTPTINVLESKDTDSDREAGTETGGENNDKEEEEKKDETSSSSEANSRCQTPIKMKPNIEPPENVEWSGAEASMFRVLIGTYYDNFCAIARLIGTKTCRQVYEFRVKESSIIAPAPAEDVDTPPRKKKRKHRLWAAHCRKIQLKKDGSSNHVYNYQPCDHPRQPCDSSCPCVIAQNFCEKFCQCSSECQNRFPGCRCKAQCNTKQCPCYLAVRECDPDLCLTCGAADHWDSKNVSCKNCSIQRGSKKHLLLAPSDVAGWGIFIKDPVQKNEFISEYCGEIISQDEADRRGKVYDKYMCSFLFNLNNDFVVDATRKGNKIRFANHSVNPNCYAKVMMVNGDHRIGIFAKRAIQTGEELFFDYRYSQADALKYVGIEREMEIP
EZH2, sequence (O75530 whole entry partner): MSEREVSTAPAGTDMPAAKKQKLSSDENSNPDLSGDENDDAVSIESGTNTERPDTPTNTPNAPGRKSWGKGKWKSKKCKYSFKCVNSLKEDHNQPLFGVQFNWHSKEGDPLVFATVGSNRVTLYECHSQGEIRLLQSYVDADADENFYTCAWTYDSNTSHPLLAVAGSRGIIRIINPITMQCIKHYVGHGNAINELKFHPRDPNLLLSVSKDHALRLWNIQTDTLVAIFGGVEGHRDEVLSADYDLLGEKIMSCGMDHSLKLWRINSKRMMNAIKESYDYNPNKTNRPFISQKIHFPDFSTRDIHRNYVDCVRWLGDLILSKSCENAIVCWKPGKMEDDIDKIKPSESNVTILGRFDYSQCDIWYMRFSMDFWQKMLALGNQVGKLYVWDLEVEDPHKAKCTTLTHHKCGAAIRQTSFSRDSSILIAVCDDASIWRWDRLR
EZH2, sequence (Q15022 whole entry partner): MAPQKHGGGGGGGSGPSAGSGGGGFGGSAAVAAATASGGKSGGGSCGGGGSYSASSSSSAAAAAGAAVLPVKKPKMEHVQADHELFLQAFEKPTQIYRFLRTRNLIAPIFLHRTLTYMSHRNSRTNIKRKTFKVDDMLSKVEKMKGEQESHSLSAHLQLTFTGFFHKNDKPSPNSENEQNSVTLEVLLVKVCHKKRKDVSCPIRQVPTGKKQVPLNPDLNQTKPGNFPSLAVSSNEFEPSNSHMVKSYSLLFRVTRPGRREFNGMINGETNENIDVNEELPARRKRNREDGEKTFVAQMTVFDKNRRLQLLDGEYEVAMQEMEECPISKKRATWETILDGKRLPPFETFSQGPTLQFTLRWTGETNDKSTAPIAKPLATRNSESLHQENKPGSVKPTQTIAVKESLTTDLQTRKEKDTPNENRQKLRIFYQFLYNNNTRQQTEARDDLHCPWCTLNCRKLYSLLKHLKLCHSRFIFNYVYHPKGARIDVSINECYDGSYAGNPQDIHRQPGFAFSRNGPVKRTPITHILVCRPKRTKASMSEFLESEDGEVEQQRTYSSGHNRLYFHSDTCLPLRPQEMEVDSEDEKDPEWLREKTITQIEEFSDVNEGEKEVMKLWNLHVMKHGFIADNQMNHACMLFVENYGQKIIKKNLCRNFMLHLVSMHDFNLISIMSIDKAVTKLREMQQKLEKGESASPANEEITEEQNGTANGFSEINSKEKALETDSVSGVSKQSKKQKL
EZH2, sequence (Q09028 whole entry partner): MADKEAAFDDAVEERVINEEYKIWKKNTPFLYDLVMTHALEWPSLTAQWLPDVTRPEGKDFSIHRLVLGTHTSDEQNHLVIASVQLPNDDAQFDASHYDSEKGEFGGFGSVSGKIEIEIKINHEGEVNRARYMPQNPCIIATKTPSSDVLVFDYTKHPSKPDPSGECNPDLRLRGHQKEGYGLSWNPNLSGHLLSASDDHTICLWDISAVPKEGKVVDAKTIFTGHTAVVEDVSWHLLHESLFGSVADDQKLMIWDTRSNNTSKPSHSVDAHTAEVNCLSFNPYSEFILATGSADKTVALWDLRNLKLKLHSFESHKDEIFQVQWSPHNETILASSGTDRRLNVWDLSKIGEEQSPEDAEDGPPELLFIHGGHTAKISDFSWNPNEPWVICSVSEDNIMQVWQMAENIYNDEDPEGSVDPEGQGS
Usually IC50 stands for the concentration at which inhibition is half-maximal. On to `Cc1cc(C)c(CNC(=O)c2cc(-c3cccnc3)cc3c2cnn3C2CCCC2)c(=O)[nH]1` [Compound C-21], for which the IC50 is < 300 nM.
For `Cc1cc(C)c(CNC(=O)c2cc(-c3cccc(COCCN(C)C)c3)cc3c2cnn3C2CCCC2)c(=O)[nH]1` [Compound C-22], the IC50 is < 300 nM.
For the compound `Cc1cc(C)c(CNC(=O)c2cc(-c3cccc(COCCN)c3)cc3c2cnn3C2CCCC2)c(=O)[nH]1` [Compound C-23], the half-inhibitory concentration (IC50) was < 300 nM.
The value for `Cc1cc(C)c(CNC(=O)c2cc(-c3cccc(CN4CCN(C)CC4)c3)cc3c2cnn3C(C)C)c(=O)[nH]1` [Compound C-24] was < 300 nM; that for `Cc1cc(C)c(CNC(=O)c2cc(-c3ccc(CN4CCNC(=O)C4)cc3)cc3c2cnn3C2CCCC2)c(=O)[nH]1` [Compound C-25] was < 300 nM; that for `Cc1cc(CN(C)C)c(CNC(=O)c2cc(-c3ccc(CN4CCOCC4)cc3)cc3c2cnn3C2CCCC2)c(=O)[nH]1` [Compound C-26] was < 300 nM.
The value for `CCOc1ccc(S(=O)(=O)N2CCN(C)CC2)cc1-c1cc(C(=O)NCc2c(C)cc(C)[nH]c2=O)c2cnn(C3CCCC3)c2c1` [Compound C-27] was < 300 nM.
The value for `Cc1cc(C)c(CNC(=O)c2cc(-c3ccc(CN4CCOCC4)c(Cl)c3)cc3c2cnn3C2CCCC2)c(=O)[nH]1` [Compound C-28] was < 300 nM; that for `Cc1cc(C)c(CNC(=O)c2cc(-c3cccc(CN(C)CCO)c3)cc3c2cnn3C2CCCC2)c(=O)[nH]1` [Compound C-29] was < 300 nM.
With `Cc1cc(C)c(CNC(=O)c2cc(-c3cnc(N)nc3)cc3c2cnn3C2CCCC2)c(=O)[nH]1` [Compound C-30], the IC50 was < 300 nM.
The value for `Cc1cc(C)c(CNC(=O)c2cc(-c3ccc(CN(C)C)cc3)cc3c2cnn3C2CCN(C(=O)C(C)(C)C)CC2)c(=O)[nH]1` [Compound C-31] was < 300 nM; that for `Cc1cc(C)c(CNC(=O)c2cc(-c3ccc(CN4CCOCC4)cc3Cl)cc3c2cnn3C2CCCC2)c(=O)[nH]1` [Compound C-32] was < 300 nM.
The value for `Cc1cc(C)c(CNC(=O)c2cc(-c3cnn(CCN4CCOCC4)c3)cc3c2cnn3C2CCCC2)c(=O)[nH]1` [Compound C-33] was < 300 nM; that for `Cc1cc(C)c(CNC(=O)c2cc(-c3cnn(CCN4CCOCC4)c3)cc3c2cnn3C2CCN(C(=O)C(C)(C)C)CC2)c(=O)[nH]1` [Compound C-34] was < 300 nM; that for `Cc1cc(C)c(CNC(=O)c2cc(-c3ccc(OCCCN(C)C)cc3)cc3c2cnn3C2CCCC2)c(=O)[nH]1` [Compound C-35] was < 300 nM.
The value for `Cc1cc(C)c(CNC(=O)c2cc(C3=CC(C)(C)NC(C)(C)C3)cc3c2cnn3C2CCCC2)c(=O)[nH]1` [Compound D-2, 1-cyclopentyl-N-((4,6-dimethyl-2-oxo-1,2-dihydropyridin-3-yl)methyl)-6-(2,2,6,6-tetramethyl-1,2,3,6-tetrahydropyridin-4-yl)-1H-indazole-4-carboxamide] was < 300 nM; that for `Cc1cc(C)c(CNC(=O)c2cc(C3CC(C)(C)NC(C)(C)C3)cc3c2cnn3C2CCCC2)c(=O)[nH]1` [Compound D-3, 1-cyclopentyl-N-((4,6-dimethyl-2-oxo-1,2-dihydropyridin-3-yl)methyl)-6-(2,2,6,6-tetramethylpiperidin-4-yl)-1H-indazole-4-carboxamide] was < 300 nM.
With `CC(=O)N1CC=C(c2cc(C(=O)NCc3c(C)cc(C)[nH]c3=O)c3cnn(C4CCCC4)c3c2)CC1` [Compound D-4, 6-(1-acetyl-1,2,3,6-tetrahydropyridin-4-yl)-1-cyclopentyl-N-((4,6-dimethyl-2-oxo-1,2-dihydropyridin-3-yl)methyl)-1H-indazole-4-carboxamide], the IC50 is < 300 nM.
The value for `Cc1cc(C)c(CNC(=O)c2cc(C3=CCN(C(=O)C4CCN(C)CC4)CC3)cc3c2cnn3C2CCCC2)c(=O)[nH]1` [Compound D-5, 1-cyclopentyl-N-((4,6-dimethyl-2-oxo-1,2-dihydropyridin-3-yl)methyl)-6-(1-(1-methylpiperidine-4-carbonyl)-1,2,3,6-tetrahydropyridin-4-yl)-1H-indazole-4-carboxamide] was < 300 nM; that for `Cc1cc(C)c(CNC(=O)c2cc(CN3CCN(C)CC3)cc3c2cnn3C2CCCC2)c(=O)[nH]1` [Compound D-7] was < 300 nM; that for `Cc1cc(C)c(CNC(=O)c2cc(CO)cc3c2cnn3C2CCCC2)c(=O)[nH]1` [Compound D-8, 1-cyclopentyl-N-((4,6-dimethyl-2-oxo-1,2-dihydropyridin-3-yl)methyl)-6-(hydroxymethyl)-1H-indazole-4-carboxamide] was 300 to 1000 nM.
The value for `Cc1cc(C)c(CNC(=O)c2cc(Cl)cc3c2cnn3C2CCCC2)c(=O)[nH]1` [Compound D-10, 6-chloro-1-cyclopentyl-N-((4,6-dimethyl-2-oxo-1,2-dihydropyridin-3-yl)methyl)-1H-indazole-4-carboxamide] was < 300 nM; that for `Cc1cc(C)c(CNC(=O)c2cc(C(F)(F)F)cc3c2cnn3C2CCCC2)c(=O)[nH]1` [Compound D-11, 1-cyclopentyl-N-((4,6-dimethyl-2-oxo-1,2-dihydropyridin-3-yl)methyl)-6-(trifluoromethyl)-1H-indazole-4-carboxamide] was 300 to 1000 nM.
The same measure for `Cc1cc(C)c(CNC(=O)c2cc(Br)cc3c2cnn3C2CCN(C(=O)OC(C)(C)C)CC2)c(=O)[nH]1` [Compound D-12, tert-butyl 4-(6-bromo-4-(((4,6-dimethyl-2-oxo-1,2-dihydropyridin-3-yl)methyl)carbamoyl)-1H-indazol-1-yl)piperidine-1-carboxylate]: < 300 nM.
As to `Cc1cc(C)c(CNC(=O)c2cc(Br)cc3c2cnn3C2CCN(C(=O)C(C)(C)C)CC2)c(=O)[nH]1` [Compound D-13], the IC50 was < 300 nM.
The value for `Cc1cc(C)c(CNC(=O)c2cc(Br)cc3c2cnn3C2CCN(C(=O)C3CNC3)CC2)c(=O)[nH]1` [Compound D-14, 1-(1-(azetidine-3-carbonyl)piperidin-4-yl)-6-bromo-N-((4,6-dimethyl-2-oxo-1,2-dihydropyridin-3-yl)methyl)-1H-indazole-4-carboxamide] was < 300 nM.
The value for `Cc1cc(C)c(CNC(=O)c2cc(Br)cc3c2cnn3C2CCN(Cc3ccccc3)CC2)c(=O)[nH]1` [Compound D-15, 1-(1-benzylpiperidin-4-yl)-6-bromo-N-((4,6-dimethyl-2-oxo-1,2-dihydropyridin-3-yl)methyl)-1H-indazole-4-carboxamide] was 300 to 1000 nM; that for `Cc1cc(C)c(CNC(=O)c2cc(Br)cc3c2cnn3C2CCN(C3CCN(C)CC3)CC2)c(=O)[nH]1` [Compound D-16, 6-bromo-N-((4,6-dimethyl-2-oxo-1,2-dihydropyridin-3-yl)methyl)-1-(1′-methyl-[1,4′-bipiperidin]-4-yl)-1H-indazole-4-carboxamide] was < 300 nM; that for `Cc1cc(CN(C)C)c(CNC(=O)c2cc(Br)cc3c2cnn3C2CCCC2)c(=O)[nH]1` [Compound D-17, 6-bromo-1-cyclopentyl-N-((4-((dimethylamino)methyl)-6-methyl-2-oxo-1,2-dihydropyridin-3-yl)methyl)-1H-indazole-4-carboxamide] was < 300 nM.
The same measure for `Cc1cc(C)c(CNC(=O)c2cc(C(C)C)cc3c2cnn3C2CCCC2)c(=O)[nH]1` [Compound D-20, 1-cyclopentyl-N-((4,6-dimethyl-2-oxo-1,2-dihydropyridin-3-yl)methyl)-6-isopropyl-1H-indazole-4-carboxamide]: 300 to 1000 nM; for `Cc1cc(CN2CCC[C@@H]2C(N)=O)c(CNC(=O)c2cc(Br)cc3c2cnn3C2CCCC2)c(=O)[nH]1` [Compound D-22]: 1000 to 3000 nM; for `Cc1cc(C)c(CNC(=O)c2cc(C(F)(F)F)cc3c2cnn3C2CCN(C(=O)C(C)(C)C)CC2)c(=O)[nH]1` [Compound D-23]: < 300 nM.
As for `Cc1cc(C)c(CNC(=O)c2cc(Cl)cc3c2cnn3C2CCN(C(=O)C(C)(C)C)CC2)c(=O)[nH]1` [Compound D-24], the IC50 was < 300 nM.
The value for `Cc1cc(C)c(CNC(=O)c2cc(C3=CC(C)(C)NC(C)(C)C3)cc3c2cnn3C2CCN(C(=O)C(C)(C)C)CC2)c(=O)[nH]1` [Compound D-25] was < 300 nM; that for `Cc1cc(C)c(CNC(=O)c2cc(Br)cc3c2cnn3C2CCN(C(=O)C3CCCC3)CC2)c(=O)[nH]1` [Compound D-26] was 300 to 1000 nM.
The value for `Cc1cc(C)c(CNC(=O)c2cc(Br)cc3c2cnn3C2CCN(C(=O)C3CCCCC3)CC2)c(=O)[nH]1` [Compound D-27] was 300 to 1000 nM; that for `Cc1cc(C)c(CNC(=O)c2cc(Br)cc3c2cnn3C2CCN(C(=O)C3CCOCC3)CC2)c(=O)[nH]1` [Compound D-28] was 300 to 1000 nM; that for `Cc1cc(C)c(CNC(=O)c2cc(Br)cc3c2cnn3C2CCN(C(=O)CN(C)C)CC2)c(=O)[nH]1` [Compound D-29] was 300 to 1000 nM.
For `Cc1cc(C)c(CNC(=O)c2cc(C3CCN(CCCN(C)C)CC3)cc3c2cnn3C2CCCC2)c(=O)[nH]1` [Compound D-30], the IC50 is < 300 nM.
The same measure for `Cc1cc(C)c(CNC(=O)c2cc(Br)cc3c2cnn3C2CCN(C(=O)OC(C)(C)C)C2)c(=O)[nH]1` [Compound D-32]: 300 to 1000 nM.
In the case of `Cc1cc(C)c(CNC(=O)c2cc(Br)cc3c2cnn3C2CCN(C(=O)C(C)(C)C)C2)c(=O)[nH]1` [Compound D-33], the IC50 is < 300 nM.
The value for `Cc1cc(C)c(CNC(=O)c2cc(Br)cc3c2cnn3C2CN(C(=O)OC(C)(C)C)C2)c(=O)[nH]1` [Compound D-34] was 1000 to 3000 nM.
The same measure for `CC(=O)N1CC(n2ncc3c(C(=O)NCc4c(C)cc(C)[nH]c4=O)cc(Br)cc32)C1` [Compound D-35]: 1000 to 3000 nM.
The value for `Cc1cc(C)c(CNC(=O)c2cc(Br)cc3c2cnn3C2CN(C(=O)C(C)(C)C)C2)c(=O)[nH]1` [Compound D-36] was 1000 to 3000 nM; that for `Cc1cc(C)c(CNC(=O)c2cc(C3=CCN(C(=O)C4CNC4)CC3)cc3c2cnn3C2CCCC2)c(=O)[nH]1` [Compound D-37] was < 300 nM; that for `Cc1cc(C)c(CNC(=O)c2cc(C3=CCN(C(=O)CN(C)C)CC3)cc3c2cnn3C2CCCC2)c(=O)[nH]1` [Compound D-38] was < 300 nM.
